From US11897868B2, “Heterocyclic inhibitors of PCSK9” (CARDIO THERAPEUTICS PTY LTD, priority 2017, dated 2024)

Experiments:
[1] = molecular target: T1, PCSK9 and the LDL receptor (Homo sapiens, UniProt Q8NBP7); assay: CircuLex PCSK9-LDLR in vitro binding assay; conditions: His-tagged PCSK9 wild type, 8 point concentration curves, absorbance 450 nm and 540 nm, read-out: Inhibition of PCSK9-LDLR binding
T1 construct: purchased CircuLex CY-8150
Description: Compounds were assayed for their ability to inhibit the binding between PCSK9 and the LDL receptor using a CircuLex PCSK9-LDLR in vitro binding assay kit (Catalog #CY-8150. The procedure employed the reagents and buffers included in the kit as follows.
88 μL of 1× reaction buffer were placed into each well. 5 μL of test compounds in 20% DMSO were added into each well. 10 mM solutions of test compounds in DMSO were diluted by 3-fold series to give 8 point concentration curves. The compounds were then diluted 20-fold with the reaction buffer. To each well was then added 7 μL of His-tagged PCSK9 wild type solution (1000 ng/mL) into each well. The plate was then covered with a plate sealer and incubated at room temperature for 3 hours, shaking at 300 rpm on an orbital microplate shaker. The test solutions were washed 4 times with 350 μL wash buffer. 100 μL of biotinylated anti-His-tag monoclonal antibody was added to each well. The plate was covered with a plate sealer, and incubated at room temperature for 1 hour, shaking at 300 rpm. The test solutions were washed 4 times with 350 μL wash buffer. 100 μL of HRP-conjugated streptavidin was added to each well. The plate was covered with a plate sealer, and incubated at room temperature for 20 min, shaking at 300 rpm.
The test solutions were washed 4 times with 350 μL wash buffer. 100 μL of substrate reagent were added into each well. The plate was covered with a plate sealer, and incubated at room temperature for 15 min, shaking at 300 rpm. Finally, 100 μL of the stop solution was added to each well in the same order as the previously added substrate reagent. Absorbance was measured at 450 nm and 540 nm and IC50 curves were plotted.

[2] = molecular target: T2, PCSK9-D374Y (Homo sapiens, UniProt Q8NBP7, D374Y); assay: LDL uptake in HepG2 cells treated with PCSK9-D374Y (cell-based assay); conditions: HepG2 cells with PCSK9-D374Y (2 μg/ml), 16 hours, Bodipy FL LDL 4 hours, FIG. 3
T2 construct: host or cells: HepG2 cells (the protein is added from outside; LDLR is endogenous)
Description: Human liver cells (hepG2) express the LDL receptor, which can take up fluorescent-labeled LDL into the cell. PCSK9 binds to LDL receptor, wherein the complex is internalized and degraded in the lysosome, resulting in lowered LDL uptake in hepG2 cells. Inhibition of PCSK9 […] lowers plasma (circulating) LDL-C by increasing LDL incorporation into the cell.
The cell-based assay was conducted as follows, according to the procedure outlined in Xu and Liu, J Bioequiv Availab 2013, 5, 7. […] Human liver HepG2 cells were seeded in a 96 well plate at 2×10^5 cells/ml and incubated overnight. PCSK9-D374Y (2 μg/ml) was added, along with test compounds. The wells were incubated for 16 hours, whereupon the medium was replaced with fresh medium containing 10 μg/ml Bodipy FL LDL, and the wells were incubated for a further 4 hours. The wells were washed using warm PBS and then the LDL uptake was quantified on a fluorescent plate reader at excitation/emission wavelengths of 485 and 530 nm respectively.
FIG. 2 indicates the decrease in LDL update in HepG2 cells comparing untreated and PCSK9-D374Y gain-of-function treated cells. Test compounds were measured at their ability to increase LDL uptake at concentrations of 0.1 and 1 μM and the results shown in FIG. 3.

T2 sequence (Q8NBP7 153-692 D374Y): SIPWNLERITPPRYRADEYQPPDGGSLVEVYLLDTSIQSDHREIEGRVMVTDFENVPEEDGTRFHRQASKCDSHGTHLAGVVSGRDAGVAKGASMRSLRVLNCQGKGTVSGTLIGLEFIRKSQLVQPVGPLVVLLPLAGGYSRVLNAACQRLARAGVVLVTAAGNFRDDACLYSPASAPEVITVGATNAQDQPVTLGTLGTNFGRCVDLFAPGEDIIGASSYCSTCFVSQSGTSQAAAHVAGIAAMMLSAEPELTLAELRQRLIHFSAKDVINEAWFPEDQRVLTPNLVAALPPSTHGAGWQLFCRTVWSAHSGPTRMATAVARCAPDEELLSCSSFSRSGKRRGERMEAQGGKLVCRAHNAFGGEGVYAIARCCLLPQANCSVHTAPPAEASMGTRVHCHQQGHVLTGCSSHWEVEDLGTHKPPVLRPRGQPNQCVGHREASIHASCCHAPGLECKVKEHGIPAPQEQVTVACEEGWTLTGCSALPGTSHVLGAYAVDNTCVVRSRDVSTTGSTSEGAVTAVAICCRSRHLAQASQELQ
T2 sequence (Q8NBP7 31-152 partner limits assumed): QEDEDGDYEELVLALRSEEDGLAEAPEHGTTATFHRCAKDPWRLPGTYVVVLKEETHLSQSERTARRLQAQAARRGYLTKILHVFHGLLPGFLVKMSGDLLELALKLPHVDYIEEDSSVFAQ
T1 sequence (Q8NBP7 153-692): as the sequence (Q8NBP7 153-692 D374Y) above, with Y222D counted along it
T1 sequence (Q8NBP7 31-152 partner limits assumed): as the sequence (Q8NBP7 31-152 partner limits assumed) above

| Compound | IC50 [1] [nM] | increase of LDL uptake ([2]; 0.1 μM compound) | increase of LDL uptake ([2]; 1 μM compound) |
| --- | --- | --- | --- |
| Cc1cn(-c2cc(NC(=O)c3ccc(C)c(Oc4cccc5ccncc45)c3)cc(N3CCN(C)CC3)c2)cn1 [Example 27, 3-(isoquinolin-8-yloxy)-4-methyl-N-(3-(4-methyl-1H-imidazol-1-yl)-5-(4-methylpiperazin-1-yl)phenyl)benzamide] | < 100 | Significant increases in LDL uptake equivalent to untreated cells | Significant increases in LDL uptake equivalent to untreated cells |
| Cc1cn(-c2cc(CN3CCC[C@H](N)C3)cc(NC(=O)c3ccc(C)c(Oc4ccccc4)c3)c2)cn1 [Example 30, (S)—N-(3-((3-aminopiperidin-1-yl)methyl)-5-(4-methyl-1H-imidazol-1-yl)phenyl)-4-methyl-3-phenoxybenzamide] | 100 to 1000 | Significant increases in LDL uptake equivalent to untreated cells | Significant increases in LDL uptake equivalent to untreated cells |
| CCCCc1cc(NC(=O)c2ccc(C)c(Nc3nccc(-c4ccccc4)n3)c2)cc(-n2cnc(C)c2)c1 [Example 11, N-(3-butyl-5-(4-methyl-1H-imidazol-1-yl)phenyl)-4-methyl-3-((4-phenylpyrimidin-2-yl)amino)benzamide] | 1000 to 10000 |  |  |
| Cc1cn(-c2cc(NC(=O)c3ccc(C)c(Nc4nccc(-c5ccncc5)n4)c3)cc(C(F)(F)F)c2)cn1 [Example 2, 4-methyl-N-(3-(4-methyl-1H-imidazol-1-yl)-5-(trifluoromethyl)phenyl)-3-((4-(pyridin-4-yl)pyrimidin-2-yl)amino)benzamide] | 1000 to 10000 |  |  |
| Cc1cn(-c2cc(NC(=O)c3ccc(C)c(OCc4ccccc4)c3)cc(C(F)(F)F)c2)cn1 [Example 14, 3-(benzyloxy)-4-methyl-N-(3-(4-methyl-1H-imidazol-1-yl)-5-(trifluoromethyl)phenyl)benzamide] | 10000 to 100000 |  |  |
